Activity calls are given as the source filed them.
How the values were obtained:
Assay type in all cases: functional, cell-based
[1] = tested on: HepG2; assay: Induction of autophagy in human HepG2 cells transfected with HCV subgenomic replicon assessed as HCV-NS5B/LAMP2 combination at 10 uM incubated for 24 hrs in presence of anti-LC3B antibodies by co-immunoprecipitation assay
[2] = tested on: HepG2; assay: Upregulation of endogenous ATG10S activated co-localisation of ZIKV-NS5 with LAMP2 in human HepG2 cells co-transfected with ZIKV-NS5 and ATG10-sMO by cellular immunofluorescence assay
[3] = tested on: HepG2; assay: Downregulation of HCV-CORE in human HepG2 cells co-transfected with HCV-subreplicon and ATG10-misMO upto 10 uM incubated for 24 hrs by western blot analysis
[4] = tested on: HepG2; assay: Induction of autophagy in human HepG2 cells transfected with HBx assessed as increase in HBx-LC3B interaction level at 10 uM incubated for 24 hrs in presence of anti-Flag antibodies by co-immunoprecipitation assay
[5] = tested on: HepG2; assay: Induction of autophagy in human HepG2 cells transfected with HBV-X and gene knockdown by IL28A morpholinos assessed as LC3B and LAMP2 interaction at 10 uM incubated for 24 hrs in presence of anti-LC3B antibodies by co-immunoprecipitation assay
[6] = tested on: HepG2; assay: Upregulation of endogenous ATG10S activated co-localisation of ZIKV-NS5 with LAMP2 in human HepG2 cells co-transfected with ZIKV-NS5 and ATG10-misMO by cellular immunofluorescence assay
[7] = tested on: HepG2; assay: Induction of autophagy in human HepG2 cells transfected with HIV-RT and gene knockdown by IL28A morpholinos assessed as LC3B and LAMP2 interaction at 10 uM incubated for 24 hrs in presence of anti-LC3B antibodies by co-immunoprecipitation assay
[8] = tested on: HepG2; assay: Induction of autophagy in human HepG2 cells assessed as […] in LC3B marker expression level upto 10 uM and measured after 6 hrs by western blot analysis; conditions: DDE = dose-dependent effect
[9] = tested on: HepG2; assay: Upregulation of IL28A mRNA expression level in human HepG2 cells transfected with HBV-X upto 10 uM by qRT-PCR analysis; conditions: DDE = dose-dependent effect
[10] = tested on: HepG2; assay: Upregulation of IL28A mRNA expression level in human HepG2 cells transfected with HIV-RT upto 10 uM by qRT-PCR analysis; conditions: DDE = dose-dependent effect
[11] = tested on: HepG2; assay: Upregulation of HIV-RT in human HepG2 cells transfected with HIV-RT and gene knockdown by IL28A morpholinos at 10 uM incubated for 24 hrs by western blot analysis
[12] = tested on: HepG2; assay: Induction of autophagy in human HepG2 cells transfected with HCV subgenomic replicon assessed as HCV-CORE/P62 combination at 10 uM incubated for 24 hrs in presence of anti-LC3B antibodies by co-immunoprecipitation assay
[13] = tested on: HepG2; assay: Upregulation of endogenous ATG10S activated co-localisation of HBx with LC3B in human HepG2 cells co-transfected with HBx and ATG10-sMO by cellular immunofluorescence assay
[14] = tested on: HepG2; assay: Induction of autophagy in human HepG2 cells transfected with HBx assessed as decrease in HBx protein level upto 10 uM and measured after 6 hrs by western blot analysis; conditions: DDE = dose-dependent effect
[15] = tested on: HepG2; assay: Upregulation of P62 in human HepG2 cells transfected with HIV-RT and gene knockdown by IL28A morpholinos at 10 uM incubated for 24 hrs by western blot analysis
[16] = tested on: HepG2; assay: Induction of autophagy in human HepG2 cells transfected with HBx assessed as increase in HBx-LAMP2 interaction level at 10 uM incubated for 24 hrs in presence of anti-Flag antibodies by co-immunoprecipitation assay
[17] = tested on: HepG2; assay: Induction of autophagy in human HepG2 cells co-transfected with ATG10 or ATG10S assessed as increase in ATG10/ATG10S protein level upto 10 uM and measured after 6 hrs by western blot analysis; conditions: DDE = dose-dependent effect
[18] = tested on: HepG2; assay: Induction of autophagy in human HepG2 cells transfected with HCV subgenomic replicon assessed as HCV-NS5B/P62 combination at 10 uM incubated for 24 hrs in presence of anti-LC3B antibodies by co-immunoprecipitation assay
[19] = tested on: HepG2; assay: Induction of autophagy in human HepG2 cells transfected with HCV subgenomic replicon assessed as HCV-CORE/P62 combination at 10 uM incubated for 24 hrs in presence of anti-LAMP2 antibodies by co-immunoprecipitation assay
[20] = tested on: HepG2; assay: Induction of autophagy in human HepG2 cells transfected with HCV subgenomic replicon assessed as HCV-CORE/LAMP2 combination at 10 uM incubated for 24 hrs in presence of anti-LAMP2 antibodies by co-immunoprecipitation assay
[21] = tested on: HepG2; assay: Downregulation of HCV-NS5B in human HepG2 cells transfected with HCV-subreplicon upto 10 uM incubated for 24 hrs by western blot analysis

Measured: Activity

CC[C@@H](O)c1nc(C)cc2c1C(=O)c1cc(=O)c3c(c(O)c1-2)O[C@@H]1O[C@H](C)[C@@H](OC)[C@@H](O)[C@]31O
active: [1] | [2] | [3] | [4] | [5] | [6] | [7] | [8] Dde | [9] Dde | [10] Dde | [11] | [12] | [13] | [14] Dde | [15] | [16] | [17] Dde | [18] | [19] | [20] | [21]
